Key:
Assay type in all cases: biochemical
[1] = target: T1, calpain-I isolated from human erythrocytes (Homo sapiens, UniProt P07384); experiment: Calpain I kinetic fluorescence enzyme inhibition assay; settings: apparent Ki from IC50 by Cheng-Prussoff; average of 2 to 4 dose-effect plots
T1 construct: calpain-I—isolated from human erythrocytes; purchased Calbiochem 208713; host or cells: human erythrocytes (tissue isolate)
T1 sequence (P07384 1-714): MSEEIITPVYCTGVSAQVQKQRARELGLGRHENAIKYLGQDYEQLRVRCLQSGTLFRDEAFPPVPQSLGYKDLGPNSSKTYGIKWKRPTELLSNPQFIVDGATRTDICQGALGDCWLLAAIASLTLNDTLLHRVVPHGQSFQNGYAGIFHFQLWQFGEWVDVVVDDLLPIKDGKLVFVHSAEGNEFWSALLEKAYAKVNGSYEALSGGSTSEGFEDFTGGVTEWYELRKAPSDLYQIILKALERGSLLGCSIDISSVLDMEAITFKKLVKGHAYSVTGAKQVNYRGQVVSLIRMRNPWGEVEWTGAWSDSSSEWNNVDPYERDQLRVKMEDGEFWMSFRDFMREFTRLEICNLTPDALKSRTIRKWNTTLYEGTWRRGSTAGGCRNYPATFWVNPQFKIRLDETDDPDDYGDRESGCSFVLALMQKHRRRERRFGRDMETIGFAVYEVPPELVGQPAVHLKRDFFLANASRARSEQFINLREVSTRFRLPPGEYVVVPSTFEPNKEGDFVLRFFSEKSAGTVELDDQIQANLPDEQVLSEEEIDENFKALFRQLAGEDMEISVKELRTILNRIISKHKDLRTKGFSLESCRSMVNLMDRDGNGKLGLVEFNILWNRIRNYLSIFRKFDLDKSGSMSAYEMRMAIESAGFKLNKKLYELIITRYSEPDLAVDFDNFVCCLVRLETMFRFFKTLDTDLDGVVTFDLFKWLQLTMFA
T1 sequence (P04632 1-268 partner): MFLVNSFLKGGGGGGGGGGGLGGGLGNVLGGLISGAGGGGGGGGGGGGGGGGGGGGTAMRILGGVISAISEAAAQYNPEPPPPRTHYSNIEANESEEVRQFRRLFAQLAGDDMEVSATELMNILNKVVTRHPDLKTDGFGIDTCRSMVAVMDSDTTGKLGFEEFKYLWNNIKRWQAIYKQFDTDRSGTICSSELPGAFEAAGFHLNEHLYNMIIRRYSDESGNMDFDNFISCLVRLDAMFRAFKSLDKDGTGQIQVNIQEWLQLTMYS

[2] = target: T2, cathepsin B isolated from human liver (Homo sapiens, UniProt P07858); experiment: Cathepsin B kinetic fluorescence enzyme inhibition assay; settings: selectivity ratio versus calpain I
T2 construct: cathepsin B—isolated from human liver; purchased Calbiochem 219362; host or cells: human liver (tissue isolate)
Procedure, shortened: (§1)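 cat B 0.25 nM + Z-Phe-Arg-AMC 100 μM; cat L 1 nM + Z-Phe-Arg-AMC 2 μM; cat S 0.5 nM (E. coli-expressed) + Z-Val-Val-Arg-AMC 20 μM. 50 mM MES pH 6.0, 2.5 mM L-Cys, RT. Ex 390/em 460, kinetic; Ki app = Cheng-Prusoff from IC50, mean of 2–4 curves.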

[3] = target: T3, cathepsin K activated from recombinant human procathepsin K (Homo sapiens, UniProt P43235); experiment: Cathepsin K kinetic fluorescence enzyme inhibition assay; settings: selectivity ratio versus calpain I
T3 construct: purchased Calbiochem 342001; host or cells: E. coli
T3 sequence (P43235 115-329): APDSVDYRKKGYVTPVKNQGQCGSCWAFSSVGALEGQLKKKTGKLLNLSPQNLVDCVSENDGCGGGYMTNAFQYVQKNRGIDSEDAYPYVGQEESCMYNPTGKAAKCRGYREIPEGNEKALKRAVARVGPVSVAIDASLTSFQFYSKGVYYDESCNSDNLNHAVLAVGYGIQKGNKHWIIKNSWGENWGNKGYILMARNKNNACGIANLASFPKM

[4] = target: T4, cathepsin L isolated from human liver (Homo sapiens, UniProt P07711); experiment: Cathepsin L kinetic fluorescence enzyme inhibition assay; settings: selectivity ratio versus calpain I
T4 construct: cathepsin L—isolated from human liver; purchased Calbiochem 219402; host or cells: human liver (tissue isolate)
T4 sequence (P07711 114-333): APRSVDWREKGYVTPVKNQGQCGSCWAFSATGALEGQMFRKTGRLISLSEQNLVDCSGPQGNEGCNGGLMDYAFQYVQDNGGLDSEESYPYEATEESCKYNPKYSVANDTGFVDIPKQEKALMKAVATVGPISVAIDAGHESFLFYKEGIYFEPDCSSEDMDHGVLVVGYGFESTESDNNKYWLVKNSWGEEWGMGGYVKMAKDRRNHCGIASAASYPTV
Procedure, shortened: as §1

[5] = target: T5, recombinant human cathepsin S (Homo sapiens, UniProt P25774); experiment: Cathepsin S kinetic fluorescence enzyme inhibition assay; settings: selectivity ratio versus calpain I
T5 construct: purchased Calbiochem 219343; host or cells: E. coli
T5 sequence (P25774 115-331): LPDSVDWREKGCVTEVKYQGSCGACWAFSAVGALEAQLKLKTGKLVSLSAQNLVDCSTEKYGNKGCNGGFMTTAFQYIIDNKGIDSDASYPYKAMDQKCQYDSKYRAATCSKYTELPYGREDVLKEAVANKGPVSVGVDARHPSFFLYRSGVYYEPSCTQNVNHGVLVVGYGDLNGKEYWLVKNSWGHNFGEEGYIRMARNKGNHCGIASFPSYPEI
Procedure, shortened: as §1

Row | SMILES | Ki [1] [nM] | Sel cat. B (Ki(cathepsin B)/Ki(calpain) ratio) [2] | Sel cat. K (Ki(cathepsin K)/Ki(calpain) ratio) [3] | Sel cat. L (Ki(cathepsin L)/Ki(calpain) ratio) [4] | Sel cat. S (Ki(cathepsin S)/Ki(calpain) ratio) [5]
1 | COc1ccc(CC(NC(=O)c2cccnc2-n2ccc(-c3ccc(F)cc3OC)n2)C(=O)C(N)=O)cc1 (centres unmarked) [Example 136, N-(3-Amino-1-{[4-(methyloxy)phenyl]methyl}-2,3-dioxopropyl)-2-{3-[4-fluoro-2-(methyloxy)phenyl]-1H-pyrazol-1-yl}pyridine-3-carboxamide] | ≤ 40 | ++ (Ki(cathepsin B)/Ki(calpain) ratio of ≧30) | ++ (Ki(cathepsin K)/Ki(calpain) ratio of ≧30) | ++ (Ki(cathepsin L)/Ki(calpain) ratio of ≧50) | ++ (Ki(cathepsin S)/Ki(calpain) ratio of ≧100)
2 | COc1ccc(CC(NC(=O)c2cccnc2-n2ccc(-c3ccc4c(c3)OC(F)(F)O4)n2)C(=O)C(N)=O)cc1 (centres unmarked) [Example 137, N-(3-Amino-1-{[4-(methyloxy)phenyl]methyl}-2,3-dioxopropyl)-2-[3-(2,2-difluoro-1,3-benzodioxol-5-yl)-1H-pyrazol-1-yl]pyridine-3-carboxamide] | 40 to 100 | + (10≦Ki(cathepsin B)/Ki(calpain)<30) | + (10≦Ki(cathepsin K)/Ki(calpain)<30) | ++ (Ki(cathepsin L)/Ki(calpain) ratio of ≧50) | ++ (Ki(cathepsin S)/Ki(calpain) ratio of ≧100)
3 | COc1cc(Cl)ccc1-c1ccn(-c2ncccc2C(=O)NC(Cc2ccccc2)C(=O)C(N)=O)n1 (centres unmarked) [Example 139, N-[3-Amino-2,3-dioxo-1-(phenylmethyl)propyl]-2-{3-[4-chloro-2-(methyloxy)phenyl]-1H-pyrazol-1-yl}pyridine-3-carboxamide] | 40 to 100 | + (10≦Ki(cathepsin B)/Ki(calpain)<30) | ++ (Ki(cathepsin K)/Ki(calpain) ratio of ≧30) | ++ (Ki(cathepsin L)/Ki(calpain) ratio of ≧50) | ++ (Ki(cathepsin S)/Ki(calpain) ratio of ≧100)
4 | NC(=O)C(=O)C(Cc1ccccc1)NC(=O)c1cccnc1-n1cc2c(n1)-c1cc(Cl)ccc1OC2 (centres unmarked) [Example 140, N-[3-Amino-2,3-dioxo-1-(phenylmethyl)propyl]-2-(8-chlorochromeno[4,3-c]pyrazol-2(4H)-yl)pyridine-3-carboxamide] | ≤ 40 | + (10≦Ki(cathepsin B)/Ki(calpain)<30) | ++ (Ki(cathepsin K)/Ki(calpain) ratio of ≧30) | ++ (Ki(cathepsin L)/Ki(calpain) ratio of ≧50) | ++ (Ki(cathepsin S)/Ki(calpain) ratio of ≧100)
5 | COc1ccc2c(c1)OCc1cn(-c3ncccc3C(=O)NC(Cc3ccccc3)C(=O)C(N)=O)nc1-2 (centres unmarked) [Example 142, N-[3-Amino-2,3-dioxo-1-(phenylmethyl)propyl]-2-[7-(methyloxy)chromeno[4,3-c]pyrazol-2(4H)-yl]pyridine-3-carboxamide] | ≤ 40 | + (10≦Ki(cathepsin B)/Ki(calpain)<30) | + (10≦Ki(cathepsin K)/Ki(calpain)<30) | ++ (Ki(cathepsin L)/Ki(calpain) ratio of ≧50) | ++ (Ki(cathepsin S)/Ki(calpain) ratio of ≧100)
6 | Cc1c(Cl)ccc2c1-c1nn(-c3ncccc3C(=O)NC(Cc3ccccc3)C(=O)C(N)=O)cc1CO2 (centres unmarked) [Example 143, N-[3-Amino-2,3-dioxo-1-(phenylmethyl)propyl]-2-(8-chloro-9-methylchromeno[4,3-c]pyrazol-2(4H)-yl)pyridine-3-carboxamide] | 40 to 100 | ++ (Ki(cathepsin B)/Ki(calpain) ratio of ≧30) | ++ (Ki(cathepsin K)/Ki(calpain) ratio of ≧30) | ++ (Ki(cathepsin L)/Ki(calpain) ratio of ≧50) | ++ (Ki(cathepsin S)/Ki(calpain) ratio of ≧100)
7 | NC(=O)C(=O)C(Cc1ccc(F)cc1)NC(=O)c1cccnc1-n1ccc(-c2ccccc2OC(F)(F)F)n1 (centres unmarked) [Example 152, N-{3-Amino-1-[(4-fluorophenyl)methyl]-2,3-dioxopropyl}-2-(3-{2-[(trifluoromethyl)oxy]phenyl}-1H-pyrazol-1-yl)pyridine-3-carboxamide] | ≤ 40 | ++ (Ki(cathepsin B)/Ki(calpain) ratio of ≧30) | ++ (Ki(cathepsin K)/Ki(calpain) ratio of ≧30) | ++ (Ki(cathepsin L)/Ki(calpain) ratio of ≧50) | ++ (Ki(cathepsin S)/Ki(calpain) ratio of ≧100)
8 | COc1ccc(CC(NC(=O)c2cccnc2-n2ccc(-c3cccc(Cl)c3Cl)n2)C(=O)C(N)=O)cc1 (centres unmarked) [Example 153, N-(3-Aamino-1-{[4-(methyloxy)phenyl]methyl}-2,3-dioxopropyl)-2-[3-(2,3-dichlorophenyl)-1H-pyrazol-1-yl]pyridine-3-carboxamide] | ≤ 40 | ++ (Ki(cathepsin B)/Ki(calpain) ratio of ≧30) | ++ (Ki(cathepsin K)/Ki(calpain) ratio of ≧30) | ++ (Ki(cathepsin L)/Ki(calpain) ratio of ≧50) | ++ (Ki(cathepsin S)/Ki(calpain) ratio of ≧100)
9 | NC(=O)C(=O)C(Cc1ccccc1)NC(=O)c1cccnc1-n1ccc(-c2cccc(C(F)(F)F)c2Cl)n1 (centres unmarked) [Example 155, N-[3-Amino-2,3-dioxo-1-(phenylmethyl)propyl]-2-{3-[2-chloro-3-(trifluoromethyl)phenyl]-1H-pyrazol-1-yl}pyridine-3-carboxamide] | 40 to 100 | ++ (Ki(cathepsin B)/Ki(calpain) ratio of ≧30) | ++ (Ki(cathepsin K)/Ki(calpain) ratio of ≧30) | ++ (Ki(cathepsin L)/Ki(calpain) ratio of ≧50) | ++ (Ki(cathepsin S)/Ki(calpain) ratio of ≧100)
10 | COc1ccc(CC(NC(=O)c2cccnc2-n2ccc(-c3cccc(F)c3Cl)n2)C(=O)C(N)=O)cc1 (centres unmarked) [Example 157, N-(3-Amino-1-{[4-(methyloxy)phenyl]methyl}-2,3-dioxopropyl)-2-[3-(2-chloro-3-fluorophenyl)-1H-pyrazol-1-yl]pyridine-3-carboxamide] | ≤ 40 | ++ (Ki(cathepsin B)/Ki(calpain) ratio of ≧30) | ++ (Ki(cathepsin K)/Ki(calpain) ratio of ≧30) | ++ (Ki(cathepsin L)/Ki(calpain) ratio of ≧50) | ++ (Ki(cathepsin S)/Ki(calpain) ratio of ≧100)

— patent US7728012B2, “Carboxamide compounds and their use as calpain inhibitors” (Abbott GmbH & Co. KG, priority 2006, dated 2010)
